Reference: US20060110790A1, “Expression system for large functional proteins” (priority 2002, published 2006)

Biological target: T1, co-expressed N and C halves of ABCR (Homo sapiens, UniProt P78363)
T1 construct: The cDNAs coding for the N-half (amino acids 1-1325) and C-half (amino acids 1326-2273) of ABCR; made in house; host or cells: COS-1 cells, co-transfected
T1 sequence (P78363 1-1325): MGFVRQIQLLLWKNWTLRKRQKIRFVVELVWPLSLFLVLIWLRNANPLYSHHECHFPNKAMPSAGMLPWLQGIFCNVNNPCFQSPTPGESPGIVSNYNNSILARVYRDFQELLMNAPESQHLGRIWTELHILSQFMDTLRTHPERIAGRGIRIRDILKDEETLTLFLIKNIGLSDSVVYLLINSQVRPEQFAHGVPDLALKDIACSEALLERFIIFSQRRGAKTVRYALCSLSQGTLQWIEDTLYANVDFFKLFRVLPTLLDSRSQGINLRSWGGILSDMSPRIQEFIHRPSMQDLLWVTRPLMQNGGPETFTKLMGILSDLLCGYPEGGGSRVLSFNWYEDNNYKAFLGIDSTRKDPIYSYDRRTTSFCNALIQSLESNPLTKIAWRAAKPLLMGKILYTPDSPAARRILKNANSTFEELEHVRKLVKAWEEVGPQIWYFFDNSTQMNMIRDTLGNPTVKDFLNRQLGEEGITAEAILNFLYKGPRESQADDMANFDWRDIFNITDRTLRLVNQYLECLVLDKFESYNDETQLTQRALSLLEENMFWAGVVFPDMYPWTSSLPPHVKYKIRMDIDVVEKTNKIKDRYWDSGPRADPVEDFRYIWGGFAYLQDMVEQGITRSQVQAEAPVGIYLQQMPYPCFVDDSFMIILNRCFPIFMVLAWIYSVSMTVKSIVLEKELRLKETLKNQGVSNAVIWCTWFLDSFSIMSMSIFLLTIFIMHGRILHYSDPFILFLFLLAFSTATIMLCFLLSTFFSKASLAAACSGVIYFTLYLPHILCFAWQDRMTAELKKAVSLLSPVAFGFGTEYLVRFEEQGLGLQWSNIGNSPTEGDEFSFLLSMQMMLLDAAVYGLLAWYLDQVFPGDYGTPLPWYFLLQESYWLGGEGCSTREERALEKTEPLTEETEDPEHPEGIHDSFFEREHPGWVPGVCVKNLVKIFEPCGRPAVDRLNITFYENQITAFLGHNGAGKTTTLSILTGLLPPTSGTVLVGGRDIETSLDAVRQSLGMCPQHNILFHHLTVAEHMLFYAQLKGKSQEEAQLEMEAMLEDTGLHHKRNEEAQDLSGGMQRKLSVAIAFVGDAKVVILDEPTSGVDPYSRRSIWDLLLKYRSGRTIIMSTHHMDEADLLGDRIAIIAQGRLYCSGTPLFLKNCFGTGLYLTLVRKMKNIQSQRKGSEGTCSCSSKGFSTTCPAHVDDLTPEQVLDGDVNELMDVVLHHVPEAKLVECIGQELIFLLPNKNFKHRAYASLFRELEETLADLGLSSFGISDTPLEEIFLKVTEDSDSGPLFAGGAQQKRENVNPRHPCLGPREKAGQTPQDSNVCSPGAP
T1 sequence (P78363 1326-2273): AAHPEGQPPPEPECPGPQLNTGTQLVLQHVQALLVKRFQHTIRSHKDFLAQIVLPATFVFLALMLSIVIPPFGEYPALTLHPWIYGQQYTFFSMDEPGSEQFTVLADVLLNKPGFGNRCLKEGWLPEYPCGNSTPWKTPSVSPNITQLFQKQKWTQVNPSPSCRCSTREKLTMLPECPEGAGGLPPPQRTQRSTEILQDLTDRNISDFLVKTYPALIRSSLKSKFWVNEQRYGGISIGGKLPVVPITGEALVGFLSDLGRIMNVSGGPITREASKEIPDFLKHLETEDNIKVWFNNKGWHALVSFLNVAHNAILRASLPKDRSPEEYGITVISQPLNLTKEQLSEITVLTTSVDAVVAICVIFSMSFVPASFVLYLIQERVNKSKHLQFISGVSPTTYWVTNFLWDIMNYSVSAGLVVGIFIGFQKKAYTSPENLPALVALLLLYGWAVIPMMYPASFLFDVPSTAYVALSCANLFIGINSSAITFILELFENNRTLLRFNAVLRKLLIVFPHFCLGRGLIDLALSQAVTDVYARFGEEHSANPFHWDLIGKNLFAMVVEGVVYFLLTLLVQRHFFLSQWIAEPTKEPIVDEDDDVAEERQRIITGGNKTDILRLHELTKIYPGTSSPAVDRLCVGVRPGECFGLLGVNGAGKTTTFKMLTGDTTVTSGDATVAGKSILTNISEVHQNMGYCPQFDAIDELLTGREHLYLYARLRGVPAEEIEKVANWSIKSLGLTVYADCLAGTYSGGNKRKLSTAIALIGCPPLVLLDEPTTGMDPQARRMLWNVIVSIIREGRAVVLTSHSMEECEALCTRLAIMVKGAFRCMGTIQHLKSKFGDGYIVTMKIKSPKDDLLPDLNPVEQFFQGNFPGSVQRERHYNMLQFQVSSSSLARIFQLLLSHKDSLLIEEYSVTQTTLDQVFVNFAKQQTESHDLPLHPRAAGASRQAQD
Assay: Retinal-stimulated ATPase activity of purified protein reconstituted in lipid vesicles
Format: biochemical
Settings: expressed in COS-1 cells, purified on Rim 3F4 column, 50 μM [α32P]ATP
Protocol: Membranes (from two 10 cm dishes) were solubilized in 0.5 ml of 1% Triton-X100 in Buffer A (140 mM NaCl, 20 mM Tris-HCl, pH 7.4) for 20 min on ice. For ATPase assays, the membrane preparation step was omitted and the cell suspension was solubilized directly in Buffer B (10 mg/ml soybean phospholipids, 10% glycerol, 1 mM dithiothreitol, 100 mM NaCl, 3 mM MgCl2, 50 mM NaHEPES, pH 7.4) containing 18 mM CHAPS. The supernatant after a 10 min centrifugation at 40,000 rpm (TLA100.4 rotor) was mixed with 50 μl Rim3F4 Sepharose 2B for 1 h at 4° C. The beads were washed 6 times in Buffer A containing 0.2% Triton X-100 or Buffer B containing 10 mM CHAPS and eluted with 4% SDS (for electrophoresis) or 0.2 mg/ml Rim3F4 peptide (for reconstitution and determination of ATPase activity). Purified protein (24 μl) was incubated with 6 μl of 50 mg/ml lipid (1:1 mixture of dioleoylphosphatidylethanolamine and brain polar lipid, by weight) and 3 μl n-octylglucoside for 30 min on ice. The mixture was diluted rapidly with 200 μl of Buffer C (1 mM dithiothreitol, 140 mM NaCl, 25 mM NaHEPES, pH 7.4) and passed through a 200 μl Extracti-gel column (Pierce). The flow-through containing the reconstituted protein was used for determination of ATPase activity.
ATPase activity was measured as described previously (Ahn, J., Wong, J. T., and Molday, R. S. (2000) J Biol Chem 275(27), 20399-405) using 50 μM [α^32P]ATP and thin layer chromatography. The all-trans retinal concentration was determined spectrophotometrically (λ383 nm=42.88 mM^−1 cm^−1). Protein concentration was estimated from the eluate before reconstitution by laser densitometry of Coomassie blue stained gels using bovine serum albumin as a standard. […] Direct protein measurements after reconstitution by densitometry of Western blots was about half of that in the eluate. […]
ATPase Activity of Expressed N and C Halves—The basal and retinal activated ATPase activity of full-length ABCR and the N and C halves individually or co-expressed in COS-1 cells was determined after immunoaffinity purification and reconstitution into lipid vesicles. […]

CC1=C(/C=C/C(C)=C/C=C/C(C)=C/C=O)C(C)(C)CCC1 [all-trans retinal]
stimulation of ATPase activity: 1-2 fold
